# Columns and labels:
# HA-mouse μOR = HA-mouse μOR (Mus musculus, UniProt P42866); assay: GloSensor cAMP inhibition assay at μOR in transfected HEK cells; assay type: cell-based; conditions: HEK293, read-out: cAMP inhibition at μOR Emax % ± SEM
# μOR [1] = molecular target: T1, μOR (Homo sapiens, UniProt P35372); assay type: binding; conditions: screen at 1 μM, [3H]DAMGO
# κOR = κOR (Homo sapiens, UniProt P41145); assay type: binding
# μOR [2] = molecular target: T1, μOR; assay type: cell-based; conditions: at 10 μM, DAMGO as control
# C57BL/6 mice [3] = assay: Hot-plate assay; assay type: in vivo
# C57BL/6 mice [4] = assay: Accelerating rotarod assay; assay type: in vivo
# C57BL/6 mice [5] = assay: Warm-water tail-flick assay; assay type: in vivo
# [6] = naloxone 10 mg/kg i.p. 15 min before 33 100 mg/kg s.c.
# HA-mouse μOR, sequence (P42866 whole entry): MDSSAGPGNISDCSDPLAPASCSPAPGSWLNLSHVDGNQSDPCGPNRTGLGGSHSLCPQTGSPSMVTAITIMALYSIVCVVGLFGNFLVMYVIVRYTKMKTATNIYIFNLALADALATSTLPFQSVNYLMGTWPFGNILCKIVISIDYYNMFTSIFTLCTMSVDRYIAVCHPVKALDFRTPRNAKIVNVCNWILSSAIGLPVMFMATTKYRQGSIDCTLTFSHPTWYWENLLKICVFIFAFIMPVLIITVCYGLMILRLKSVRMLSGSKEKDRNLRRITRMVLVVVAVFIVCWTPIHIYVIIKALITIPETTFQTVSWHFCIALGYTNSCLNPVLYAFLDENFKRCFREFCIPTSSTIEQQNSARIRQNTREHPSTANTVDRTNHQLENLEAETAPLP
# T1 sequence (P35372 whole entry): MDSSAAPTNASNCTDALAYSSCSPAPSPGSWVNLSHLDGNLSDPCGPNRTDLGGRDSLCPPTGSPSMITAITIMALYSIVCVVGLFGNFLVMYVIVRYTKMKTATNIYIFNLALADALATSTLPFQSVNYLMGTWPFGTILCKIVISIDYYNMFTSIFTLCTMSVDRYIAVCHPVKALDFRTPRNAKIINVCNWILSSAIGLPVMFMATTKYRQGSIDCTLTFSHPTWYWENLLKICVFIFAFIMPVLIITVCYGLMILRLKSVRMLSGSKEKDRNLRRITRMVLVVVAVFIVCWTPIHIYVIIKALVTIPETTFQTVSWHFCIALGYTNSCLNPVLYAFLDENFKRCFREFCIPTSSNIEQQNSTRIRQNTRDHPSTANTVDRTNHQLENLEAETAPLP
# κOR, sequence (P41145 whole entry): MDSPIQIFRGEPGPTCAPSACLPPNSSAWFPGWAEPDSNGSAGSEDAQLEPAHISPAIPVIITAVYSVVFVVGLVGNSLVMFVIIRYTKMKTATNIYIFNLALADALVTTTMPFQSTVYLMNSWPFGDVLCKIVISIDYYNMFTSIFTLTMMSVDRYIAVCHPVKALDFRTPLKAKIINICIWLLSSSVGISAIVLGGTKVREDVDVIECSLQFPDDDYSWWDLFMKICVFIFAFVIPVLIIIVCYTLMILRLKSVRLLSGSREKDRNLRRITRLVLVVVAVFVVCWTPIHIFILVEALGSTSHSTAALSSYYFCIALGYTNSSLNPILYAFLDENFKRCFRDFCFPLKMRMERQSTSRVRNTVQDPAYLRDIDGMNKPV
structure (smiles),measurement,setting,value
"C/C=C1\CN2CC[C@@]34c5ccccc5N(Cc5ccccc5)[C@]35OC[C@@]4(C(=O)OC)[C@H]1C[C@H]25 [Compound 32, N-1-Benzyl psuedoakuammigine]",Emax,HA-mouse μOR,63 ± 4%
"C/C=C1/CN2CC[C@@]34c5cc(O)ccc5N(C)[C@]35OC[C@@]4(C(=O)OC)[C@H]1C[C@H]25 [Compound 1, Akuammine, reference compound]",Emax,HA-mouse μOR,62 ± 6%
"C/C=C1/CN2CC[C@@]34c5ccccc5N(C)[C@]35OC[C@@]4(C(=O)OC)[C@H]1C[C@H]25 [Compound 2, Pseudoakuammigine, reference compound]",Emax,HA-mouse μOR,82 ± 7%
"C/C=C1/CN2CC[C@@]34c5cc(O)c(I)cc5N(C)[C@]35OC[C@@]4(C(=O)OC)[C@H]1C[C@H]25 [Compound 20, 11-Iodoakuammine]",radioligand displacement at μOR,μOR [1],> 50%
same,Emax,HA-mouse μOR,32 ± 6%
same,radioligand displacement at κOR,κOR,> 50%
"C/C=C1\CN2CC[C@@]34c5ccccc5N(CC)[C@]35OC[C@@]4(C(=O)OC)[C@H]1C[C@H]25 [Compound 31, N-1-Ethyl psuedoakuammigine]",Emax,HA-mouse μOR,59 ± 4%
"C/C=C1/CN2CC[C@@]34c5cc(O)c(Br)cc5N(C)[C@]35OC[C@@]4(C(=O)OC)[C@H]1C[C@H]25 [Compound 19, 11-Bromoakuammine]",radioligand displacement at μOR,μOR [1],> 50%
same,Emax,HA-mouse μOR,40 ± 5%
same,radioligand displacement at κOR,κOR,> 50%
"C[C@@H](NC(=O)[C@@H](N)Cc1ccc(O)cc1)C(=O)NCC(=O)N(C)[C@@H](Cc1ccccc1)C(=O)NCCO [DAMGO, (2S)-2-[[2-[[(2R)-2-[[(2S)-2-Amino-3-(4-hydroxyphenyl)propanoyl]amino]propanoyl]amino]acetyl]-methylamino]-N-(2hydroxyethyl)-3-phenylpropanamide, reference compound]",Emax,HA-mouse μOR,96 ± 4%
"C/C=C1\CN2CC[C@@]34c5ccccc5N(CCc5ccccc5)[C@]35OC[C@@]4(C(=O)OC)[C@H]1C[C@H]25 [Compound 33, N-1-Phenethyl psuedoakuammigine]",recruitment of βArr2 to the μOR,μOR [2],< 10%
same,antinociceptive effect in hot-plate assay,"C57BL/6 mice [3]; mice, 80 and 100 mg/kg s.c.",exhibited antinociceptive effect
same,"antinociceptive effect after naloxone pretreatment, hot-plate",C57BL/6 mice [3]; [6],completely blocked by naloxone
same,"effect on locomotor activity, latency to fall","C57BL/6 mice [4]; 65 mg/kg and 80 mg/kg s.c., accelerating rotarod 4-40 rpm over 300 s",significantly impaired motor activity
same,effect on motor coordination,"C57BL/6 mice [4]; high doses (80, 100 mg/kg, s.c.)",impair motor coordination
same,Emax,HA-mouse μOR,76 ± 5%
same,ED50,"C57BL/6 mice [5]; Mus musculus, sc, read-out: ED50 tail-flick assay",77.6 mg/kg
same,"antinociception versus morphine (10 mg/kg), peak effect and duration","C57BL/6 mice [5]; mice, 100 mg/kg s.c., tail-flick",comparable to that of the morphine
same,antinociceptive effect in tail-flick assay,"C57BL/6 mice [5]; mice, 80 and 100 mg/kg s.c.",exhibited antinociceptive effect
same,"antinociceptive effect after naloxone pretreatment, tail-flick",C57BL/6 mice [5]; [6],completely blocked by naloxone

# — article PMC10037270 (Journal of medicinal chemistry, 2023)
